*1 amine or outer side, *2 acyl side, *3 side chain or, on linkers, in order; H or OH if unused. Where a SMILES comes first, the peptide text is derived from it. Bridges are numbered along the chain shown (N, C = ends). [ ]: non-standard residue; d: D form. The star is where a group is joined. Ethylenediamine = C(CN[*:2])N[*:1]; Hyp = O=C(O)[C@@H]1C[C@@H](O)CN1; NMeF = CN[C@@H](Cc1ccccc1)C(=O)O; Decanoyl = CCCCCCCCCC(=O)*; NMeA = CN[C@@H](C)C(=O)O; Sar = CNCC(=O)O
Columns and labels:
[1] = tested on: influenza virus A/Nagasaki/HA-58/2009 (H1N1); format: cell-based
[2] = tested on: influenza virus A/Puerto Rico/8/34 (H1N1); format: cell-based
[3] = tested on: influenza virus A/Duck/Pennsylvania/84 (H5N2); format: cell-based
[4] = tested on: influenza virus A/Puerto Rico/8/34 (H1N1); parameters: species or system BALB/cA Jcl [SPF] mice; conditions: mouse

CCCCCCCCCC(=O)NCCNC(=O)[C@@H]1CSCC(=O)N[C@@H](Cc2c[nH]c3ccccc23)C(=O)N[C@@H]([C@@H](C)O)C(=O)N(C)CC(=O)N[C@@H](CC(=O)O)C(=O)N(C)[C@@H](Cc2ccccc2)C(=O)N(C)[C@@H](Cc2ccccc2)C(=O)N[C@@H](C)C(=O)N(C)[C@@H](C)C(=O)N[C@@H](Cc2cnc[nH]2)C(=O)N[C@@H](Cc2ccc(O)cc2)C(=O)N[C@@H]([C@@H](C)O)C(=O)N[C@@H](C(C)C)C(=O)N2C[C@H](O)C[C@H]2C(=O)N[C@@H](C)C(=O)N1 [HA152] ({CH2CO}-WT[Sar]D[NMeF][NMeF]A[NMeA]HYTV[Hyp]AC-{Ethylenediamine-Decanoyl}; thioether N-15)
inhibition of cell death in low concentration range [1]: remarkable inhibition of cell death
inhibition of cell death in low concentration range [2]: remarkable inhibition of cell death
inhibition of cell death in low concentration range [3]: remarkable inhibition of cell death
in vivo anti-virus activity compared to peramivir [4]: comparable or superior to peramivir
survival rate ([4]; in vivo, iv): 60%
